The term IC50 denotes the concentration that gives 50% inhibition. The low end stands for inhibition by little substance, the high end for a need for much substance.

Where a name gives a salt, the structure may show the parent alone.

Experimental findings from patent publication US6962937B2, “Imidazolidine derivatives, their preparation and their use” (Aventis Pharma Deutschland GmbH, priority 2001, dated 2005) are described below.

For the assay, the target named is T1, interaction between VCAM-1 and VLA-4 (Homo sapiens, UniProt P05556+P13612).
T1 construct: supplied in their natural form as surface molecules on human U937 cells; host or cells: U937 cells (endogenous VLA-4); The partner hVCAM-1(1-3)-IgG was made in house in transfected COS cells (ATCC CRL1651) and used as culture supernatant
T1 sequence (P13612 34-1032): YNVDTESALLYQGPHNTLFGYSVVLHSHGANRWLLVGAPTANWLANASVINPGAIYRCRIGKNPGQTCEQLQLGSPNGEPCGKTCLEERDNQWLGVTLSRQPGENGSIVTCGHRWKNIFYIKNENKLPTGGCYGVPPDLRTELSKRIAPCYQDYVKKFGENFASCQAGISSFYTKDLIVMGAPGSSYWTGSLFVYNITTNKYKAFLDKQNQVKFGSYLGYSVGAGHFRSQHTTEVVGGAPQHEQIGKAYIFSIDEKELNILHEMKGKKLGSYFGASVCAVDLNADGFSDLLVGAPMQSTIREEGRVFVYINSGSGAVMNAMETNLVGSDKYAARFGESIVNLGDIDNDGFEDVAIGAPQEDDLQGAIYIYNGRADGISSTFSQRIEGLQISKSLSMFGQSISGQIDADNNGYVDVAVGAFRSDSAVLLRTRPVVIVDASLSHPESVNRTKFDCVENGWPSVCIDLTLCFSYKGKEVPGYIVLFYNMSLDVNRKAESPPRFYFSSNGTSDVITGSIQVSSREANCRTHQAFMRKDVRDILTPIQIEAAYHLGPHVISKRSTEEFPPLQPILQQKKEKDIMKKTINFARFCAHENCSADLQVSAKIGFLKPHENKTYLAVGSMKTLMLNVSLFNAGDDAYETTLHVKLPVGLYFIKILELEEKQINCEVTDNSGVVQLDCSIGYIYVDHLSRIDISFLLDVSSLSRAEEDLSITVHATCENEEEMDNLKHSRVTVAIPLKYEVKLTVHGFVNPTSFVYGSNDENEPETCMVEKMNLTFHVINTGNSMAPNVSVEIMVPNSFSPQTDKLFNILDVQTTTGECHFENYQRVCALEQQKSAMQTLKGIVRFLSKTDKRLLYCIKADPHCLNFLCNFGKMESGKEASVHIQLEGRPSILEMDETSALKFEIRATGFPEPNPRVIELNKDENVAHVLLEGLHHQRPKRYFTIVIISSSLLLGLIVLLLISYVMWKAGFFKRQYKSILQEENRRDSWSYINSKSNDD
T1 sequence (P05556 21-798): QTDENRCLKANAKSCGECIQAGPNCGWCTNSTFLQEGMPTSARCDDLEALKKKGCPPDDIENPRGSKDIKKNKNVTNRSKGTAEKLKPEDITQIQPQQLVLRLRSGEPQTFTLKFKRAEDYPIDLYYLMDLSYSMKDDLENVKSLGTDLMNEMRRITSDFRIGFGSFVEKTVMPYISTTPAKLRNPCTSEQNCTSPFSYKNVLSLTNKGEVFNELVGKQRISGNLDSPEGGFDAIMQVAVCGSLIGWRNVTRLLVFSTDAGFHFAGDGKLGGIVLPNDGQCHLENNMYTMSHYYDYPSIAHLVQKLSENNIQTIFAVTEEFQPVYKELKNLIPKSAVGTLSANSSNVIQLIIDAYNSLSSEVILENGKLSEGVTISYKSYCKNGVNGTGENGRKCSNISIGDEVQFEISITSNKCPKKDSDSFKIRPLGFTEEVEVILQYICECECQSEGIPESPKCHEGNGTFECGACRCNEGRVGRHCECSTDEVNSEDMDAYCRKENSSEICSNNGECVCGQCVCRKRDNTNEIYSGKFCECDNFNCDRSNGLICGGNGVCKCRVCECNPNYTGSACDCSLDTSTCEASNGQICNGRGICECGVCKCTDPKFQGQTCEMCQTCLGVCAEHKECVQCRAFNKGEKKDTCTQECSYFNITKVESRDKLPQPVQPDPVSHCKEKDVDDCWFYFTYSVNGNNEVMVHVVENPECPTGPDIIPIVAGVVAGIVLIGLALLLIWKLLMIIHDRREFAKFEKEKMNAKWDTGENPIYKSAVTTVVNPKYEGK
Briefly: U937/VCAM-1 cell adhesion test (adhesion of U937 cells to hVCAM-1 (1-3)-IgG). It is filed as cell-based. Particulars: inhibition of adhesion of human U937 cells (ATCC CRL 1593) to hVCAM-1 (1-3)-IgG. The text has this:
A) U937/VCAM-1 Cell Adhesion Test (Assay for Measuring the Adhesion of U937 Cells (ATCC CRL 1593) to hVCAM-1 (1-3)-IqG)
The assay described below which is specific for the interaction between VCAM-1 and VLA-4, is used as the method for testing the activity of the compounds of the formula I on this interaction. The cellular binding partners, that is the VLA-4 integrins, are supplied in their natural form as surface molecules on human U937 cells (ATCC CRL 1593) which belong to the leukocyte group. The specific binding partners employed are recombinantly prepared soluble fusion proteins which consist of the extracytoplasmic domain of human VCAM-1 and the constant region of a human immunoglobulin of the IgG1 subclass.
1. Preparation of Human VCAM-1 (1-3)-IqG and Human CD4-IgG
A gene construct for expressing the extracellular domain of human VCAM-1 linked to the gene sequence for the heavy chain of human immunoglobulin IgG1 (hinge, CH2 and CH3 regions) (from Dr. Brian Seed, Massachusetts General Hospital, Boston, USA; cf. Damle and Aruffo, Proc. Natl. Acad. Sci. USA, 1991, 88:6403) was employed. The soluble fusion protein hVCAM-1 (1-3)-IgG contained the three aminoterminal extracellular immunoglobulin-like domains of human VCAM-1 (Damle and Aruffo, Proc. Natl. Acad. Sci. USA, 1991, 88:6403). CD4-IgG (Zettimeissl et al., DNA and Cell Biology, 1990, 9:347) was used as the fusion protein for negative controls. The recombinant proteins were expressed as soluble proteins following the DEAE/dextran-mediated transfection of DNA into COS cells (ATCC CRL1651) using standard procedures (Ausubel et a., Current protocols in molecular biology, John Wiley & Sons, Inc., 1994).
2. Assay for Measuring the Adhesion of U937 Cells to hVCAM-1 (1-3)-IgG […]
2.6 U937 cells were incubated in Fc receptor blocking buffer for 20 minutes and then pipetted in at a concentration of 1×10^6/mL and in a quantity of 100 μL per well (final volume: 125 μL/well). […]
Compound `COc1cc(CN2C(=O)N([C@H](CN[C@@H](CC(=O)O)c3ccccc3)CC3CC3)C(=O)C2(C)C)ccc1NC(=O)Nc1ccccc1C` [Example 6, (S)-3-((S)-2-(4,4-Dimethyl-3-(4-(3-(2-methylphenyl)ureido)-3-methoxybenzyl)-2,5-dioxoimidazolidin-1-yl)-3-cyclopropylpropylamino)-3-phenylpropionic acid hydrochloride] returned an IC50 of 66.2 nM.

As to `COc1cc(CN2C(=O)N([C@H](CN[C@@H](CC(=O)O)c3ccc(OC)c(OC)c3)CC3CC3)C(=O)C2(C)C)ccc1NC(=O)Nc1ccccc1C` [Example 14, (S)-3-((S)-2-(4,4-Dimethyl-3-(4-(3-(2-methylphenyl)ureido)-3-methoxybenzyl)-2,5-dioxoimidazolidin-1-yl)-3-cyclopropylpropylamino)-3-(3,4-dimethoxyphenyl)propionic acid hydrochloride], the IC50 was 8.2 nM. In the case of `COc1cc(CN2C(=O)N([C@H](CN[C@@H](CC(=O)O)c3ccc4c(c3)OCO4)CC3CC3)C(=O)C2(C)C)ccc1NC(=O)Nc1ccccc1C` [Example 17, (S)-3-((S)-2-(4,4-Dimethyl-3-(4-(3-(2-methylphenyl)ureido)-3-methoxybenzyl)-2,5-dioxoimidazolidin-1-yl)-3-cyclopropylpropylamino)-3-(3,4-methylenedioxyphenyl)propionic acid hydrochloride] it was 24.4 nM.
